Values of other authors as cited in patent US20030113270A1, “Vasoactive intestinal peptides for glaucomatous retinopathy” (priority 2001, published 2003).
Where no end group is shown, it is not given here.

Tested on: neuronal survival

Substance	potency in promoting neuronal survival relative to VIP (more potent than VIP) [fold]	neuroprotection (Alzheimer's disease-relevant models)
Stearyl-norleucine^17-VIP [SNV]	100	–
vasoactive intestinal polypeptide (HSDAVFTDNYTRLRKQMAVKKYLNSILN; ends and bridges not checked; UniProt P01282 125-152, looked up) [VIP, 28 amino acid neuropeptide]	–	provide neuroprotection
